The values below come from patent US9758524B2, “4-imidazopyridazin-1-yl-benzamides as Btk inhibitors” (Merck Sharp & Dohme B.V., priority 2011, dated 2017).

Assay [1] deals with Lck enzyme (Homo sapiens (Human), UniProt P06239). The assay is described as follows: Lck enzyme activity (IMAP fluorescence polarization assay).
Assay [2] deals with FynT enzyme (Homo sapiens (Human), UniProt P06241). The assay is described as follows: FynT enzyme activity (IMAP fluorescence polarization assay). To be noted: 60 min pre-incubation, 0.2 μM ATP. It counts as biochemical. The essentials:
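Human FynT pre-incubated with compounds 60 min at room temperature, then reacted 2 h at room temperature with fluorescein-labelled p34cdc2 peptide (100 nM final). Stopped with IMAP binding solution; fluorescence polarization read after 60 min. Activity as % of ±ATP control difference; EC50 by curve fitting.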

For assay [3], the target named is Btk enzyme (His-Btk) (Homo sapiens (Human), UniProt Q06187). The assay is described as follows: Btk enzyme activity (IMAP fluorescence polarization assay). For orientation: Polarisation of emitted light reports the rotation of a fluorescent probe.
The target of assay [4] is Lyn enzyme (Homo sapiens (Human), UniProt P07948). Put plainly: Lyn enzyme activity (IMAP fluorescence polarization assay).
Assay [5] deals with Src enzyme (Homo sapiens (Human), UniProt P12931). Put plainly: Src enzyme activity (IMAP fluorescence polarization assay). As to conditions: read-out: EC50 Src activity values; IMAP, 60 min pre-incubation, 4 μM ATP.
Where [6] appears, read: read-out: EC50 Lck activity values, IMAP, 60 min pre-incubation, 6 μM ATP, bin bound in μM.
Setting [7] is: IMAP, 60 min pre-incubation, 5 μM ATP, bin bound in μM.
The mark [8] stands for this setting: read-out: EC50 Lyn activity values, 60 min pre-incubation, 2 μM ATP, bin bound in μM.
Setting [9] is: IMAP, 60 min pre-incubation, 5 μM ATP, bin bound in nM.
Where [10] appears, read: read-out: EC50 Btk activity values, IMAP, 60 min pre-incubation, 5 μM ATP, bin bound in nM.

Where two headings read alike, the source gives them in different places. Where only a bound is given, the exact number is not on record here.

Chain of Lck enzyme (P06239 whole entry): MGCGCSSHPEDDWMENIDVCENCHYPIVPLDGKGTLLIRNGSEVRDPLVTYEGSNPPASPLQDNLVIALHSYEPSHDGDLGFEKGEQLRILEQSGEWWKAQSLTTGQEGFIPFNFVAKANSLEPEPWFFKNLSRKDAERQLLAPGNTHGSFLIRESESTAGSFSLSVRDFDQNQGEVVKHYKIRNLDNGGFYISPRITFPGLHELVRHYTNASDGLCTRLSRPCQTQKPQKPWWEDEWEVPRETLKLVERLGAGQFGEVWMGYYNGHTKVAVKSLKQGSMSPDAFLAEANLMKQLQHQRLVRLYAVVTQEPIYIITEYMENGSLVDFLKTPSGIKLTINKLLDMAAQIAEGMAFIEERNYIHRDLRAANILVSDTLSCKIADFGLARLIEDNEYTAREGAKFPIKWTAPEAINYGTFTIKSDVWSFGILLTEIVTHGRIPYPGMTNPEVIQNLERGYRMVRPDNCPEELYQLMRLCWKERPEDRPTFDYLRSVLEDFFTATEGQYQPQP
Chain of FynT enzyme (P06241 other isoform, or with tags, fused parts or gaps): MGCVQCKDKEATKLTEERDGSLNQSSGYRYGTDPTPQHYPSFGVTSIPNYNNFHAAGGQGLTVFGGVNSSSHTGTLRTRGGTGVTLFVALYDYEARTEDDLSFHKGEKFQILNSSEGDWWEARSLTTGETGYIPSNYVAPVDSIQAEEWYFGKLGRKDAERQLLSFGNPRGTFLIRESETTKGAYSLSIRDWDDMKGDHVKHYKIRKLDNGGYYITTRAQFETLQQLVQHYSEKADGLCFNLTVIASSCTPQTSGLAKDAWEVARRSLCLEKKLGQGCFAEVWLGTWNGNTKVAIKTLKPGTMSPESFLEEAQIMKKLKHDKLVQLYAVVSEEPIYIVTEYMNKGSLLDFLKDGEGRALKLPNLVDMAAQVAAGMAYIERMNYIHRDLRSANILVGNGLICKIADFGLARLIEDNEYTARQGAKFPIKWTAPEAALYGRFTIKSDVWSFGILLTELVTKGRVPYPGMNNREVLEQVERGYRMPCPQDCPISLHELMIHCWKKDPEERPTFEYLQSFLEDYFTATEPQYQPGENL
Chain of Btk enzyme (His-Btk) (Q06187 whole entry): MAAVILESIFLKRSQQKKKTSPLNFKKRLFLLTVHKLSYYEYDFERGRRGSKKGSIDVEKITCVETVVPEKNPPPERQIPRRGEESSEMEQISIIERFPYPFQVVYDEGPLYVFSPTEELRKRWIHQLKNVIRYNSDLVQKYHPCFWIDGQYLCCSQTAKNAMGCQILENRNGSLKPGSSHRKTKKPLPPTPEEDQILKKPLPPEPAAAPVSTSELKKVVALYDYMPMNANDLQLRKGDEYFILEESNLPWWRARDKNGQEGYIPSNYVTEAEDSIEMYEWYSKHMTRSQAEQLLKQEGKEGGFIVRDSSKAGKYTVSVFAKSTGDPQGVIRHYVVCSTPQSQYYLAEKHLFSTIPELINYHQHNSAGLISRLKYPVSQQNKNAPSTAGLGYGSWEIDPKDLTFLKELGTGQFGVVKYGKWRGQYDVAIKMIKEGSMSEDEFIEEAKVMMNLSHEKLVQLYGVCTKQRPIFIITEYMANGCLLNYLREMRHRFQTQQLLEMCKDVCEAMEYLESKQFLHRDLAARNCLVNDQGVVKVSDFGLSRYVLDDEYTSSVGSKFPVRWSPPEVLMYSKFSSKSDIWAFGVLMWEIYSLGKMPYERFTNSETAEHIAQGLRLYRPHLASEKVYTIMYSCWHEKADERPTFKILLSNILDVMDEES
Chain of Lyn enzyme (P07948 whole entry): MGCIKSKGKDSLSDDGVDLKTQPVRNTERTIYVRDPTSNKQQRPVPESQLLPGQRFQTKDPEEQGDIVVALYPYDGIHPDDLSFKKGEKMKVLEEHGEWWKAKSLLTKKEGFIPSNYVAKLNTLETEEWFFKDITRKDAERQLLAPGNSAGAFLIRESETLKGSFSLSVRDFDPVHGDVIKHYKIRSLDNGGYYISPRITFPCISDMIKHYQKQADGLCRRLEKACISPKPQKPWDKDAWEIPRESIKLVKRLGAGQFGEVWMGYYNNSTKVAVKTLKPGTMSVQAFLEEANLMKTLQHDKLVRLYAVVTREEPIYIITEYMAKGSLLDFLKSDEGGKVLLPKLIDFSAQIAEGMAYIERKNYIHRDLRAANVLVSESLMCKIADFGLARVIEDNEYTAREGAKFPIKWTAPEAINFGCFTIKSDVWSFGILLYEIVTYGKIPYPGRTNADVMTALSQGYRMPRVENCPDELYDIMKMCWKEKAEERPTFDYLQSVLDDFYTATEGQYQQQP
Chain of Src enzyme (P12931 whole entry, looked up): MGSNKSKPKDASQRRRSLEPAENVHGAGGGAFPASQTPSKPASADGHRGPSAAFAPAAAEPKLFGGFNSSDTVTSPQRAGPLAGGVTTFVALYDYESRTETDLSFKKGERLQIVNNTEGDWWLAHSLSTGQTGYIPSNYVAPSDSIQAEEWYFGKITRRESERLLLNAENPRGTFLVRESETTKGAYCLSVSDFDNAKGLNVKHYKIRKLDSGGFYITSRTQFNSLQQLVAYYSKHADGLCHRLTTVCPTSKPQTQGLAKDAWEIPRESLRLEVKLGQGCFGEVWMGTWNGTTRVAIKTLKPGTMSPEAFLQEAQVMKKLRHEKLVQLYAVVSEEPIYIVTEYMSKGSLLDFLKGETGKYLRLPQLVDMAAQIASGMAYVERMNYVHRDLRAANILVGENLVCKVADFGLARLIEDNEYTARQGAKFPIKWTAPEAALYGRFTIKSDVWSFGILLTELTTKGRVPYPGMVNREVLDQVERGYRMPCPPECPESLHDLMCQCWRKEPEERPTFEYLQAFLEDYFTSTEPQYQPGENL

By EC50 is commonly meant the midpoint of the concentration-response curve. With `N#CCN1CCC[C@H]1c1nc(-c2ccc(C(=O)Nc3ccccn3)cc2)c2c(N)nccn12` [Example 94, (S)-4-(8-amino-3-(1-(cyanomethyl)pyrrolidin-2-yl)imidazo[1,5-a]pyrazin-1-yl)-N-(pyridin-2-yl)benzamide], the concentration giving a half-maximal response (EC50) is ≥ 1 µM in assay [1] (setting [6]); ≥ 1000 nM in assay [2]; 100 to 1000 nM in assay [3]; ≥ 1 µM in assay [4] (setting [8]); ≥ 1000 nM in assay [5]. Besides, the “EC50 Btk activity values” in assay [3] (setting [7]) was <1 µM.

With `COC/C=C/C(=O)NCc1nc(-c2ccc(C(=O)Nc3ccccn3)cc2)c2c(N)nccn12` [Example 95, (E)-4-(8-amino-3-((4-methoxybut-2-enamido)methyl)imidazo[1,5-a]pyrazin-1-yl)-N-(pyridin-2-yl)benzamide], the EC50 in assay [1] (setting [6]) is ≥ 1 µM; in assay [2] it was ≥ 1000 nM; in assay [3], 10 to 100 nM; in assay [4] (setting [8]) it was ≥ 1 µM; in assay [5], ≥ 1000 nM. The “EC50 Btk activity values” in assay [3] (setting [9]) is <0.1 µM.

As to `CC#CC(=O)N1CCC[C@H]1c1nc(-c2ccc(C(=O)Nc3cc(N4CCCC4)ccn3)cc2)c2c(N)nccn12` [Example 96, (S)-4-(8-amino-3-(1-but-2-ynoylpyrrolidin-2-yl)imidazo[1,5-a]pyrazin-1-yl)-N-(4-(pyrrolidin-1-yl)pyridin-2-yl)benzamide], the EC50 in assay [1] (setting [6]) was ≥ 1 µM; in assay [2], ≥ 1000 nM; in assay [3] it was 10 to 100 nM; in assay [4] (setting [8]) it was ≥ 1 µM; in assay [5], ≥ 1000 nM. For the same compound, the “EC50 Btk activity values” in assay [3] (setting [9]) was <0.1 µM.

For `COC/C=C/C(=O)N1CCCCC[C@H]1c1nc(-c2ccc(C(=O)Nc3ccccn3)cc2)c2c(N)nccn12` [Example 97, (E)-4-(8-amino-3-(1-(4-methoxybut-2-enoyl)azepan-2-yl)imidazo[1,5-a]pyrazin-1-yl)-N-(pyridin-2-yl)benzamide], the EC50 in assay [1] (setting [6]) was ≥ 1 µM; in assay [2], ≥ 1000 nM; in assay [3] it was 10 to 100 nM; in assay [4] (setting [8]) it was ≥ 1 µM; in assay [5] it was ≥ 1000 nM. Besides, the “EC50 Btk activity values” in assay [3] (setting [9]) was <0.1 µM.

Turning to `COC/C=C/C(=O)N1CCC[C@H]1c1nc(-c2ccc(C(=O)Nc3cc(C#N)ccn3)cc2)c2c(N)nccn12` [Example 98, (S,E)-4-(8-amino-3-(1-(4-methoxybut-2-enoyl)pyrrolidin-2-yl)imidazo[1,5-a]pyrazin-1-yl)-N-(4-cyanopyridin-2-yl)benzamide], the concentration for a half-maximal effect (EC50) in assay [1] (setting [6]) is ≥ 1 µM; in assay [2], ≥ 1000 nM; in assay [3], 10 to 100 nM; in assay [4] (setting [8]) it was ≥ 1 µM; in assay [5] it was ≥ 1000 nM. Also, the “EC50 Btk activity values” in assay [3] (setting [9]) was <0.1 µM.

For `CC#CC(=O)N1CCC[C@H]1c1nc(-c2ccc(C(=O)Nc3ccccn3)c(OC)c2)c2c(N)nccn12` [Example 99, (S)-4-(8-amino-3-(1-but-2-ynoylpyrrolidin-2-yl)imidazo[1,5-a]pyrazin-1-yl)-2-methoxy-N-(pyridin-2-yl)benzamide], the EC50 in assay [1] (setting [6]) is ≥ 1 µM; in assay [2], ≥ 1000 nM; in assay [3] it was 10 to 100 nM; in assay [4] (setting [8]), ≥ 1 µM; in assay [5] it was ≥ 1000 nM. Further, in assay [3] (setting [9]), the “EC50 Btk activity values” is <0.1 µM.

Take `C=CC(=O)N[C@@H](C)c1nc(-c2ccc(C(=O)Nc3ccccn3)cc2)c2c(N)nccn12` [Example 100, (S)-4-(3-(1-acrylamidoethyl)-8-aminoimidazo[1,5-a]pyrazin-1-yl)-N-(pyridin-2-yl)benzamide]: the EC50 in assay [1] (setting [6]) is ≥ 1 µM; in assay [2] it was ≥ 1000 nM; in assay [3] (setting [10]) it was < 10 nM; in assay [4] (setting [8]) it was ≥ 1 µM; in assay [5] it was ≥ 1000 nM.

Take `C=CC(=O)N1CCC[C@H]1c1nc(-c2ccc(C(=O)Nc3nccs3)cc2)c2c(N)nccn12` [Example 101, (S)-4-(3-(1-acryloylpyrrolidin-2-yl)-8-aminoimidazo[1,5-a]pyrazin-1-yl)-N-(thiazol-2-yl)benzamide]: the EC50 was ≥ 1 µM in assay [1] (setting [6]); ≥ 1000 nM in assay [2]; < 10 nM in assay [3] (setting [10]); ≥ 1 µM in assay [4] (setting [8]); ≥ 1000 nM in assay [5].

Turning to `CC#CC(=O)N1CCC[C@H]1c1nc(-c2ccc(C(=O)Nc3cc(C(C)C)ccn3)cc2)c2c(N)nccn12` [Example 102, (S)-4-(8-amino-3-(1-but-2-ynoylpyrrolidin-2-yl)imidazo[1,5-a]pyrazin-1-yl)-N-(4-isopropylpyridin-2-yl)benzamide], the EC50 in assay [1] (setting [6]) is ≥ 1 µM; in assay [2], ≥ 1000 nM; in assay [3] (setting [10]), < 10 nM; in assay [4] (setting [8]), ≥ 1 µM; in assay [5] it was ≥ 1000 nM.

Take `COC/C=C/C(=O)N1CCC[C@H]1c1nc(-c2ccc(C(=O)Nc3ccccn3)c(OC)c2)c2c(N)nccn12` [Example 103, (S,E)-4-(8-amino-3-(1-(4-methoxybut-2-enoyl)pyrrolidin-2-yl)imidazo[1,5-a]pyrazin-1-yl)-2-methoxy-N-(pyridin-2-yl)benzamide]: the half-maximal effective concentration (EC50) in assay [1] (setting [6]) was ≥ 1 µM; in assay [2], ≥ 1000 nM; in assay [3], 10 to 100 nM; in assay [4] (setting [8]) it was ≥ 1 µM; in assay [5], ≥ 1000 nM. For the same compound, the “EC50 Btk activity values” in assay [3] (setting [9]) is <0.1 µM.

Take `Nc1nccn2c([C@@H]3CCCN3C(=O)/C=C/c3ccccc3)nc(-c3ccc(C(=O)Nc4ccccn4)cc3)c12` [Example 104, (S,E)-4-(8-amino-3-(1-cinnamoylpyrrolidin-2-yl)imidazo[1,5-a]pyrazin-1-yl)-N-(pyridin-2-yl)benzamide]: the EC50 was 0.1 to 1 µM in assay [1]; ≥ 1000 nM in assay [2]; 100 to 1000 nM in assay [3]; ≥ 1 µM in assay [4] (setting [8]); ≥ 1000 nM in assay [5]. Besides, the “EC50 Lck activity values” in assay [1] (IMAP, 60 min pre-incubation, 6 μM ATP, bin bound in μM) is <1 µM. Also, in assay [3] (setting [7]), the “EC50 Btk activity values” is <1 µM.

Turning to `C[C@H](NC(=O)c1ccnc(Cl)n1)c1nc(-c2ccc(C(=O)Nc3ccccn3)cc2)c2c(N)nccn12` [Example 105, (S)-N-(1-(8-amino-1-(4-(pyridin-2-ylcarbamoyl)phenyl)imidazo[1,5-a]pyrazin-3-yl)ethyl)-2-chloropyrimidine-4-carboxamide], the concentration giving a half-maximal response (EC50) in assay [1] (setting [6]) was ≥ 1 µM; in assay [2], ≥ 1000 nM; in assay [3], 10 to 100 nM; in assay [4] (setting [8]), ≥ 1 µM; in assay [5], ≥ 1000 nM. Besides, the “EC50 Btk activity values” in assay [3] (setting [9]) was <0.1 µM.

Turning to `CC#CC(=O)N1CCC[C@H]1c1nc(-c2ccc(C(=O)Nc3cc(F)ccn3)cc2)c2c(N)nccn12` [Example 106, (S)-4-(8-amino-3-(1-but-2-ynoylpyrrolidin-2-yl)imidazo[1,5-a]pyrazin-1-yl)-N-(4-fluoropyridin-2-yl)benzamide], the EC50 was ≥ 1 µM in assay [1] (setting [6]); ≥ 1000 nM in assay [2]; 10 to 100 nM in assay [3]; ≥ 1 µM in assay [4] (setting [8]); ≥ 1000 nM in assay [5]. For the same compound, the “EC50 Btk activity values” in assay [3] (setting [9]) is <0.1 µM.

On to `CCCc1ccnc(NC(=O)c2ccc(-c3nc([C@@H]4CCCCN4C(=O)c4ccnc(Cl)n4)n4ccnc(N)c34)cc2)c1` [Example 107, (S)-4-(8-amino-3-(1-(2-chloropyrimidine-4-carbonyl)piperidin-2-yl)imidazo[1,5-a]pyrazin-1-yl)-N-(4-propylpyridin-2-yl)benzamide], for which the half-maximal effective concentration (EC50) in assay [1] (setting [6]) is ≥ 1 µM; in assay [2] it was ≥ 1000 nM; in assay [3] (setting [10]), < 10 nM; in assay [4] (setting [8]), ≥ 1 µM; in assay [5] it was ≥ 1000 nM.

Regarding `COC/C=C/C(=O)N1CCCC[C@H]1c1nc(-c2ccc(C(=O)Nc3cc(C(F)(F)F)ccn3)cc2)c2c(N)nccn12` [Example 108, (S,E)-4-(8-amino-3-(1-(4-methoxybut-2-enoyl)piperidin-2-yl)imidazo[1,5-a]pyrazin-1-yl)-N-(4-(trifluoromethyl)pyridin-2-yl)benzamide], the concentration giving a half-maximal response (EC50) in assay [1] (setting [6]) is ≥ 1 µM; in assay [2], ≥ 1000 nM; in assay [3] (setting [10]), < 10 nM; in assay [4] (EC50 Lyn activity values, 60 min pre-incubation, 2 μM ATP, bin bound in μM) it was ≥ 1 µM; in assay [5], ≥ 1000 nM.

Consider `C=CC(=O)N1CCCC[C@H]1c1nc(-c2ccc(C(=O)Nc3cc(C(F)(F)F)ccn3)cc2)c2c(N)nccn12` [Example 109, (S)-4-(3-(1-acryloylpiperidin-2-yl)-8-aminoimidazo[1,5-a]pyrazin-1-yl)-N-(4-(trifluoromethyl)pyridin-2-yl)benzamide], for which the concentration giving a half-maximal response (EC50) in assay [1] (setting [6]) was ≥ 1 µM; in assay [2], ≥ 1000 nM; in assay [3] (setting [10]), < 10 nM; in assay [4] (setting [8]), ≥ 1 µM; in assay [5], ≥ 1000 nM.

Consider `CC#CC(=O)N1CCCC[C@H]1c1nc(-c2ccc(C(=O)Nc3cc(CCC)ccn3)c(OC)c2)c2c(N)nccn12` [Example 110, (S)-4-(8-amino-3-(1-but-2-ynoylpiperidin-2-yl)imidazo[1,5-a]pyrazin-1-yl)-2-methoxy-N-(4-propylpyridin-2-yl)benzamide], for which the 50% effective concentration (EC50) in assay [1] (setting [6]) was ≥ 1 µM; in assay [2], ≥ 1000 nM; in assay [3] (setting [10]), < 10 nM; in assay [4] (setting [8]), ≥ 1 µM; in assay [5], ≥ 1000 nM.
